Counter-ions that a name gives are not always drawn.
tested on: Acinetobacter baumannii ATCC17961; assay: Antimicrobial susceptibility testing: 90% growth inhibitory concentration (IC90) determination; assay type: cell-based; conditions: Acinetobacter baumannii, ATCC17961, 16 h, 90% growth inhibitory concentration, Acinetobacter baumannii ATCC17961, Iso-Sensitest broth, OD 600 nm over 16 h; read-out: ATCC 17961 IC90
Outline: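 Growth inhibition derived in log phase from OD600 kinetics (every 20 minutes, 16h, 35±2° C) of ATCC17961 in Iso-Sensitest medium, inoculum ~5×10^5 CFU/ml. Compounds tested as twofold series, 10 points (e.g. 50 to 0.097 μM final); IC90 and IC50 reported.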

Row | SMILES | IC90
1 | Cc1n[nH]cc1-c1ccc(-c2cnc(C(=O)Nc3ccc(C(=O)N4CCN(C(=O)CCC[N+](CCCN)(CCCN)CC(=O)O)CC4)c(Cl)c3)n2C)c(F)c1F [Example D41, bis(3-aminopropyl)-(carboxymethyl)-[4-[4-[2-chloro-4-[[5-[2,3-difluoro-4-(3-methyl-1H-pyrazol-4-yl)phenyl]-1-methyl-imidazole-2-carbonyl]amino]benzoyl]piperazin-1-yl]-4-oxo-butyl]ammonium; formic acid; formate] | 0.061 µM
2 | Cc1n[nH]cc1-c1ccc(-c2cnc(C(=O)Nc3ccc(C(=O)N4CCN(C(=O)CCC[N+](CC(=O)O)(CC5CNC5)CC5CNC5)CC4)c(Cl)c3)n2C)c(F)c1F [Example D42, bis(azetidin-3-ylmethyl)-(carboxymethyl)-[4-[4-[2-chloro-4-[[5-[2,3-difluoro-4-(3-methyl-1H-pyrazol-4-yl)phenyl]-1-methyl-imidazole-2-carbonyl]amino]benzoyl]piperazin-1-yl]-4-oxo-butyl]ammonium; formic acid; formate] | 0.06 µM
3 | COCCn1ncc(-c2ccc(-c3cnc(C(=O)Nc4ccc(C(=O)N5CCN(C(=O)C6(OC)CCNCC6)CC5)c(Cl)c4)n3C)c(F)c2F)c1C [Example D44, N-[3-chloro-4-[4-(4-methoxypiperidine-4-carbonyl)piperazine-1-carbonyl]phenyl]-5-[2,3-difluoro-4-[1-(2-methoxyethyl)-5-methyl-pyrazol-4-yl]phenyl]-1-methyl-imidazole-2-carboxamide] | 0.16 µM
4 | COCCn1ncc(-c2ccc(-c3cnc(C(=O)Nc4ccc(C(=O)N5CCN(C(=O)C[C@@H]6CCNC6)CC5)c(Cl)c4)n3C)c(F)c2F)c1C [Example E2, N-[3-chloro-4-[4-[2-[(3S)-pyrrolidin-3-yl]acetyl]piperazine-1-carbonyl]phenyl]-5-[2,3-difluoro-4-[1-(2-methoxyethyl)-5-methyl-pyrazol-4-yl]phenyl]-1-methyl-imidazole-2-carboxamide; formic acid] | 0.048 µM
5 | COCCn1ncc(-c2ccc(-c3cnc(C(=O)Nc4ccc(C(=O)N5CCN(C(=O)C6CCNCC6)CC5)c(Cl)c4)n3C)c(F)c2C)c1C [Example E3, N-[3-chloro-4-[4-(piperidine-4-carbonyl)piperazine-1-carbonyl]phenyl]-5-[2-fluoro-4-[1-(2-methoxyethyl)-5-methyl-pyrazol-4-yl]-3-methyl-phenyl]-1-methyl-imidazole-2-carboxamide; formic acid] | 0.49 µM
6 | COCCn1ncc(-c2ccc(-c3cnc(C(=O)Nc4ccc(C(=O)N5CCN(C(=O)C6CCNCC6)CC5)c(Cl)c4)n3C)c(C)c2F)c1C [Example E5, N-[3-chloro-4-[4-(piperidine-4-carbonyl)piperazine-1-carbonyl]phenyl]-5-[3-fluoro-4-[1-(2-methoxyethyl)-5-methyl-pyrazol-4-yl]-2-methyl-phenyl]-1-methyl-imidazole-2-carboxamide; formic acid] | 0.18 µM
7 | Cn1c(-c2ccc(-c3cn(CCOC(F)F)nc3C(F)(F)F)c(F)c2F)cnc1C(=O)Nc1ccc(C(=O)N2CCN(C(=O)C3CCNCC3)CC2)c(Cl)c1 [Example E6, N-[3-chloro-4-[4-(piperidine-4-carbonyl)piperazine-1-carbonyl]phenyl]-5-[4-[1-[2-(difluoromethoxy)ethyl]-3-(trifluoromethyl)pyrazol-4-yl]-2,3-difluoro-phenyl]-1-methyl-imidazole-2-carboxamide; formic acid] | 0.95 µM
8 | COCCn1ncc(-c2ccc(-c3cnc(C(=O)Nc4ccc(C(=O)N5CCNCC5)c(Cl)c4)n3C)c(F)c2F)c1C [Example E7, N-[3-chloro-4-(piperazine-1-carbonyl)phenyl]-5-[2,3-difluoro-4-[1-(2-methoxyethyl)-5-methyl-pyrazol-4-yl]phenyl]-1-methyl-imidazole-2-carboxamide; 2,2,2-trifluoroacetic acid] | 0.21 µM
9 | COCCn1ncc(-c2ccc(-c3cnc(C(=O)Nc4ccc(C(=O)N5CCN(C(=O)[C@@H]6C[C@@H](O)CN6)CC5)c(C)c4)n3C)c(F)c2F)c1C [Example E8, 5-[2,3-difluoro-4-[1-(2-methoxyethyl)-5-methyl-pyrazol-4-yl]phenyl]-N-[4-[4-[(2S,4R)-4-hydroxypyrrolidine-2-carbonyl]piperazine-1-carbonyl]-3-methyl-phenyl]-1-methyl-imidazole-2-carboxamide] | 0.2 µM
10 | COCCn1ncc(-c2ccc(-c3cnc(C(=O)Nc4ccc(C(=O)N5CCN(C(=O)[C@@H]6C[C@@H](O)CN6)CC5)c(Cl)c4)n3C)c(F)c2F)c1C [Example E9, N-[3-chloro-4-[4-[(2S,4R)-4-hydroxypyrrolidine-2-carbonyl]piperazine-1-carbonyl]phenyl]-5-[2,3-difluoro-4-[1-(2-methoxyethyl)-5-methyl-pyrazol-4-yl]phenyl]-1-methyl-imidazole-2-carboxamide; 2,2,2-trifluoroacetic acid] | 0.065 µM
11 | COCCn1ncc(-c2ccc(-c3cnc(C(=O)Nc4ccc(C(=O)NCC5CCNCC5)c(Cl)c4)n3C)c(F)c2F)c1C [Example E10, N-[3-chloro-4-(4-piperidylmethyl-carbamoyl)phenyl]-5-[2,3-difluoro-4-[1-(2-methoxyethyl)-5-methyl-pyrazol-4-yl]phenyl]-1-methyl-imidazole-2-carboxamide; 2,2,2-trifluoroacetic acid] | 0.17 µM
12 | COCCn1ncc(-c2ccc(-c3cnc(C(=O)Nc4ccc(C(=O)N5CCN(C(=O)C6CCNCC6)CC5)c(Cl)c4)n3C)c(F)c2F)c1C [Example E11, N-[3-chloro-4-[4-(piperidine-4-carbonyl)piperazine-1-carbonyl]phenyl]-5-[2,3-difluoro-4-[1-(2-methoxyethyl)-5-methyl-pyrazol-4-yl]phenyl]-1-methyl-imidazole-2-carboxamide; 2,2,2-trifluoroacetic acid] | 0.061 µM
13 | Cn1c(-c2ccc(-c3c[nH]nc3C(F)(F)F)c(F)c2)cnc1C(=O)Nc1ccc(C(=O)N2CCN(C(=O)C3CCN(CC(N)=O)CC3)CC2)c(Cl)c1 [Example E12, N-[4-[4-[1-(2-amino-2-oxo-ethyl)piperidine-4-carbonyl]piperazine-1-carbonyl]-3-chloro-phenyl]-5-[3-fluoro-4-[3-(trifluoromethyl)-1H-pyrazol-4-yl]phenyl]-1-methyl-imidazole-2-carboxamide; 2,2,2-trifluoroacetic acid] | 0.15 µM
14 | COCCn1ncc(-c2ccc(-c3cnc(C(=O)Nc4ccc(C(=O)N5CCN(C(=O)C6CCNCC6)CC5)c(Cl)c4)n3C)c(F)c2F)c1COC [Example E13, N-[3-chloro-4-[4-(piperidine-4-carbonyl)piperazine-1-carbonyl]phenyl]-5-[2,3-difluoro-4-[1-(2-methoxyethyl)-5-(methoxymethyl)pyrazol-4-yl]phenyl]-1-methyl-imidazole-2-carboxamide; formic acid] | 0.38 µM
15 | COCCn1ncc(-c2ccc(-c3cnc(C(=O)Nc4ccc(C(=O)N5CCN(C(=O)CN(C)C)CC5)c(C)c4)n3C)cc2)c1C [Example E14, N-[4-[4-[2-(dimethylamino)acetyl]piperazine-1-carbonyl]-3-methyl-phenyl]-5-[4-[1-(2-methoxyethyl)-5-methyl-pyrazol-4-yl]phenyl]-1-methyl-imidazole-2-carboxamide] | 0.27 µM
16 | Cc1n[nH]cc1-c1ccc(-c2cnc(C(=O)Nc3ccc(C(=O)N4CCN(C(=O)CN(C)C)CC4)c(Cl)c3)n2C)cc1 [Example E15, N-[3-chloro-4-[4-[2-(dimethylamino)acetyl]piperazine-1-carbonyl]phenyl]-1-methyl-5-[4-(3-methyl-1H-pyrazol-4-yl)phenyl]imidazole-2-carboxamide; formic acid] | 0.18 µM
17 | Cc1n[nH]c(C)c1-c1ccc(-c2cnc(C(=O)Nc3ccc(C(=O)N4CCN(C(=O)CN(C)C)CC4)c(Cl)c3)n2C)cc1 [Example E16, N-[3-chloro-4-[4-[2-(dimethylamino)acetyl]piperazine-1-carbonyl]phenyl]-5-[4-(3,5-dimethyl-1H-pyrazol-4-yl)phenyl]-1-methyl-imidazole-2-carboxamide] | 0.23 µM
18 | COc1ccc(-c2[nH]ncc2-c2ccc(-c3cnc(C(=O)Nc4ccc(C(=O)N5CCN(C(=O)C6CCNCC6)CC5)c(Cl)c4)n3C)c(F)n2)cc1 [Example E17, N-[3-chloro-4-[4-(piperidine-4-carbonyl)piperazine-1-carbonyl]phenyl]-5-[2-fluoro-6-[5-(4-methoxyphenyl)-1H-pyrazol-4-yl]-3-pyridyl]-1-methyl-imidazole-2-carboxamide; formic acid] | 0.71 µM
19 | Cn1c(-c2ccc(-c3cn[nH]c3)nc2F)cnc1C(=O)Nc1ccc(C(=O)N2CCN(C(=O)C3CCNCC3)CC2)c(Cl)c1 [Example E18, N-[3-chloro-4-[4-(piperidine-4-carbonyl)piperazine-1-carbonyl]phenyl]-5-[2-fluoro-6-(1H-pyrazol-4-yl)-3-pyridyl]-1-methyl-imidazole-2-carboxamide] | 0.82 µM
20 | Cc1n[nH]cc1-c1ccc(-c2cnc(C(=O)Nc3ccc(C(=O)N4CCN(C(=O)C5CCNCC5)CC4)c(Cl)c3)n2C)c(F)c1F [Example E19, N-[3-chloro-4-[4-(piperidine-4-carbonyl)piperazine-1-carbonyl]phenyl]-5-[2,3-difluoro-4-(3-methyl-1H-pyrazol-4-yl)phenyl]-1-methyl-imidazole-2-carboxamide] | 0.13 µM

same assay, conditions: Acinetobacter baumannii, ATCC17961, 16 h, read-out: ATCC 17961 IC90

Row | SMILES | IC90
21 | Cc1n[nH]c(C)c1-c1ccc(-c2cnc(C(=O)Nc3ccc(C(=O)N4CCN(C(=O)[C@@H]5C[C@@H](O)C[N+]5(C)C)CC4)c(Cl)c3)n2C)c(F)c1F [Example D43, N-[3-chloro-4-[4-[(2S,4R)-4-hydroxy-1,1-dimethyl-pyrrolidin-1-ium-2-carbonyl]piperazine-1-carbonyl]phenyl]-5-[4-(3,5-dimethyl-1H-pyrazol-4-yl)-2,3-difluoro-phenyl]-1-methyl-imidazole-2-carboxamide; formate] | 0.81 µM

— US12421211B2, “Heterocyclic compounds” (Hoffmann-La Roche Inc., priority 2021, dated 2025)
